Values quoted from earlier work as cited in US11723868B2, “Biodegradable polymer microsphere compositions for parenteral administration” (Adare Pharmaceuticals USA, Inc., priority 2016, dated 2023).

Assays:
[1] = properties of drugs used, Table B
[2] = properties of drugs used, Table B; remark: listed apart in the source

Row | SMILES | Water Solubility [1] [µg/mL] | logP [2]
1 | COc1cc2c(cc1Cc1cccc(Cl)c1F)c(=O)c(C(=O)O)cn2[C@H](CO)C(C)C [Drug A, Elvitegravir] | <3 | 4.67
2 | C[C@@H](O)[C@@H]1NC(=O)[C@H](CCCCN)NC(=O)[C@@H](Cc2c[nH]c3ccccc23)NC(=O)[C@H](Cc2ccccc2)NC(=O)[C@@H](NC(=O)[C@H](N)Cc2ccccc2)CSSC[C@@H](C(=O)N[C@H](CO)[C@@H](C)O)NC1=O [Drug D, Octreotide] | >10000 | 
3 | C#C[C@]1(O)CC[C@H]2[C@@H]3CCC4=CC(=O)CC[C@@H]4[C@H]3C(=C)C[C@@]21CC [Drug C, Etonogestrel] | <7 | 3.40
